{"source": "patent US20240165182A1", "about": "“METHOD OF EXTRACTION OF PROANTHOCYANIDINS COMPOUND FROM PINE BARK OF PINUS ROXBURGHII” (AMBE PHYTOEXTRACTS PVT. LTD., priority 2022, published 2024)", "key": {"[1]": {"test_system": "Human keratinocytes (HaCaT)", "assay": "GSH modulation assay against hydrogen peroxide induced oxidative stress (GSH ELISA)", "type": "cell-based", "conditions": "H2O2 500 μm 3 hours, tested concentration 17.61 μg/ml (positive control)", "protocol": "For conducting the analysis, 10 mg of Pine bark extract from Pinus roxburghii (Pinorox®) was dissolved in a DMSO (Dimethyl sulfoxide) solution. The volume of the test solution was made up using DMEM-HG (Dulbecco's Modified eagle Medium) and supplemented with 2% inactivated FBS (Fetal bovine serum) to acquire a solution with concentration of 10 mg/ml. The test solution was further proceeded with sterilization using syringe filtration. For carrying out the cytotoxic analysis, a two-fold serial dilution was prepared. The cell line of Human keratinocytes (HaCaT) was obtained from Addex Bio, USA and were cultured in DMEM-HG supplemented media with 10% inactivated fetal bovine serum (FBS), penicillin (100 IU/mL), streptomycin ([…]) and amphotericin B (5 μg/mL) in a wet atmosphere of 5% CO2 at a temperature of 37° C. until confluent. […] The samples were analyzed to estimate the levels of GSH using Elab science GSH ELISA kit by following the manufacturer's instruction. […]"}, "[2]": {"assay": "Total antioxidant capacity (TAC) assay, sulphuric acid/sodium phosphate/ammonium molybdate reagent", "conditions": "concentration 1000 μg/ml, 90 minutes at 95° C.", "protocol": "The assay was performed to evaluate the total antioxidant capacity of a Pinorox® i.e. Pine bark extract from Pinus roxburghii against the standard ascorbic acid for in-vitro study. Antioxidants are compounds that are capable of inhibiting the process of oxidation that occurs under the influence of atmospheric oxygen or reactive oxygen species. The antioxidants are employed for stabilizing polymeric products, petrochemicals, cosmetics and food stuff along with pharmaceuticals. Antioxidants are involved in defense mechanisms of an organism against the associated pathologies in order to attack the free radicals. The test is carried out to check the total antioxidant capacity of a pine bark extract in order to avoid nutritional loss. The total antioxidant capacity of Pinorox® i.e. Pine bark extract from Pinus roxburghii was found out to be 756.993±0.150 mM equivalent of the ascorbic acid having 1000±0.027 mM at 1000 μg/mL. Pine bark extract of 5.5 mg each/ascorbic acid were subjected to dissolve in 0.5 ml of DMSO (Dimethyl sulfoxide) in a separate container. 0.244 ml of 0.6 M sulphuric acid was added to a 15 ml of distilled water. […] The absorbance was recorded at […] via ELISA (enzyme-linked immunosorbent assay) reader and the values were recorded. The total activity of antioxidant was expressed as mM which is equivalent of ascorbic acid. […]"}}}
{"molecule": "O=C1O[C@H]([C@@H](O)CO)C(O)=C1O", "note": "[Ascorbic acid]", "values": [{"measurement": "% Increase in GSH level over hydrogen peroxide control", "setting": "[1]", "value": "95.59±0.03", "unit": "%"}, {"measurement": "TAC (total antioxidant capacity)", "setting": "[2]", "value": "1000 ± 0.027 mM equivalent of ascorbic acid"}, {"measurement": "TAC (total antioxidant capacity)", "setting": "[2]; listed as ascorbic acid", "value": "1000±0.027 mM equivalent of ascorbic acid"}]}
